Source: BindingDB's records for doi:10.1016/s0960-894x(00)00493-5 (Wyeth-Ayerst Research, 2000)

Target: Proto-oncogene tyrosine-protein kinase Src (Homo sapiens, UniProt P12931)
Assay: Kinase inhibition Assay
Conditions: pH 7.5; 30 °C
Description: Src kinase activity was measured in an ELISA format. IC50 is the inhibitor concentration which inhibits 50% of kinase activity that catalyzes the transfer of the terminal phosphate from ATP to the substrate.

Sequence of Proto-oncogene tyrosine-protein kinase Src (P12931 2-536 limits assumed): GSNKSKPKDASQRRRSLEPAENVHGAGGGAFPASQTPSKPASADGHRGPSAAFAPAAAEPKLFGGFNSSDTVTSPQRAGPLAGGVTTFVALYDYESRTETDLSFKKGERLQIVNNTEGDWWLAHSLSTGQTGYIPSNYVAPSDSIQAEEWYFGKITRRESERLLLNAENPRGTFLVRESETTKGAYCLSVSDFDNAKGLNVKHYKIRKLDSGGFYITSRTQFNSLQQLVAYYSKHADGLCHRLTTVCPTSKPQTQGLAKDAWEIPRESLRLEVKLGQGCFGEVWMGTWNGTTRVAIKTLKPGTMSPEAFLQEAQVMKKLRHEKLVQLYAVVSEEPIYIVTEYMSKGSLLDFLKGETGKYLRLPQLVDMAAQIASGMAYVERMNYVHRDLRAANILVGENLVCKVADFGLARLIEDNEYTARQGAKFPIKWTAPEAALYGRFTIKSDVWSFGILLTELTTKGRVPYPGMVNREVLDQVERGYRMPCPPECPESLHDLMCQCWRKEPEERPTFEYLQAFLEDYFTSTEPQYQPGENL

`COc1cc2ncc(C#N)c(NCc3cc(OC)c(OC)c(OC)c3)c2cc1OC` [6,7-dimethoxy-4-{[(3,4,5-trimethoxyphenyl)methyl]amino}quinoline-3-carbonitrile] gave an IC50 of over 10 µM.
